# Key:
# [1] = system: NCI-H522; test: Growth inhibition of human NCI-H522 cells after 48 hrs by sulforhodamine B assay; type: functional; conditions: NCI-H522, 48 h
# [2] = system: COLO 205; test: Growth inhibition of human COLO205 cells after 48 hrs by sulforhodamine B assay; type: functional; conditions: COLO 205, 48 h
# [3] = system: NCI-H460; test: Growth inhibition of human NCI-H460 cells after 48 hrs by sulforhodamine B assay; type: functional; conditions: NCI-H460, 48 h
# [4] = system: NCI-H23; test: Growth inhibition of human NCI-H23 cells after 48 hrs by sulforhodamine B assay; type: functional; conditions: NCI-H23, 48 h
# [5] = system: HOP-62; test: Growth inhibition of human HOP62 cells after 48 hrs by sulforhodamine B assay; type: functional; conditions: HOP-62, 48 h
# [6] = system: HOP-92; test: Growth inhibition of human HOP92 cells after 48 hrs by sulforhodamine B assay; type: functional; conditions: HOP-92, 48 h
# [7] = Growth inhibition of human EKVX cells after 48 hrs by sulforhodamine B assay; type: functional
# [8] = system: A549; test: Growth inhibition of human A549/ATCC cells after 48 hrs by sulforhodamine B assay; type: functional; conditions: A549, 48 h
# [9] = system: SR; test: Growth inhibition of human SR cells after 48 hrs by sulforhodamine B assay; type: functional
# [10] = system: RPMI-8226; test: Growth inhibition of human RPMI8226 cells after 48 hrs by sulforhodamine B assay; type: functional; conditions: RPMI-8226, 48 h
# [11] = system: MOLT-4; test: Growth inhibition of human MOLT4 cells after 48 hrs by sulforhodamine B assay; type: functional; conditions: MOLT-4, 48 h
# [12] = system: K562; test: Growth inhibition of human K562 cells after 48 hrs by sulforhodamine B assay; type: functional; conditions: K562, 48 h
# [13] = system: HL-60(TB); test: Growth inhibition of human HL-60(TB) cells after 48 hrs by sulforhodamine B assay; type: functional; conditions: HL-60, 48 h
# [14] = system: CCRF-CEM; test: Growth inhibition of human CCRF-CEM cells after 48 hrs by sulforhodamine B assay; type: functional
# [15] = organism: Ovis aries; test: Inhibition of sheep brain tubulin polymerization at 100 uM using DAPI by fluorimetry
# [16] = system: T47D; test: Growth inhibition of human T47D cells after 48 hrs by sulforhodamine B assay; type: functional
# [17] = system: BT-549; test: Growth inhibition of human BT549 cells after 48 hrs by sulforhodamine B assay; type: functional; conditions: BT-549, 48 h
# [18] = Growth inhibition of human Hs 578T cells after 48 hrs by sulforhodamine B assay; type: functional
# [19] = system: MDA-MB-231; test: Growth inhibition of human MDA-MB-231 cells after 48 hrs by sulforhodamine B assay; type: functional; conditions: MDA-MB-231, 48 h
# [20] = system: MCF7; test: Growth inhibition of human MCF7 cells after 48 hrs by sulforhodamine B assay; type: functional; conditions: MCF7, 48 h
# [21] = system: SF-539; test: Growth inhibition of human SF539 cells after 48 hrs by sulforhodamine B assay; type: functional; conditions: SF-539, 48 h
# [22] = system: SNB-75; test: Growth inhibition of human SNB75 cells after 48 hrs by sulforhodamine B assay; type: functional; conditions: SNB-75, 48 h
# [23] = system: SF-295; test: Growth inhibition of human SF295 cells after 48 hrs by sulforhodamine B assay; type: functional; conditions: SF-295, 48 h
# [24] = system: SF-268; test: Growth inhibition of human SF268 cells after 48 hrs by sulforhodamine B assay; type: functional; conditions: SF-268, 48 h
# [25] = system: PC-3; test: Growth inhibition of human PC3 cells after 48 hrs by sulforhodamine B assay; type: functional; conditions: PC-3, 48 h
# [26] = system: TK-10; test: Growth inhibition of human TK10 cells after 48 hrs by sulforhodamine B assay; type: functional; conditions: TK-10, 48 h
# [27] = system: DU-145; test: Growth inhibition of human DU145 cells after 48 hrs by sulforhodamine B assay; type: functional; conditions: DU-145, 48 h
# [28] = system: ACHN; test: Growth inhibition of human ACHN cells after 48 hrs by sulforhodamine B assay; type: functional
# [29] = system: 786-0; test: Growth inhibition of human 786-0 cells after 48 hrs by sulforhodamine B assay; type: functional; conditions: 786-0, 48 h
# [30] = system: UO-31; test: Growth inhibition of human UO31 cells after 48 hrs by sulforhodamine B assay; type: functional; conditions: UO-31, 48 h
# [31] = system: RXF 393; test: Growth inhibition of human RXF393 cells after 48 hrs by sulforhodamine B assay; type: functional; conditions: RXF 393, 48 h
# [32] = system: SN12C; test: Growth inhibition of human SN12C cells after 48 hrs by sulforhodamine B assay; type: functional
# [33] = system: CAKI-1; test: Growth inhibition of human CAKI-1 cells after 48 hrs by sulforhodamine B assay; type: functional; conditions: CAKI-1, 48 h
# [34] = system: A498; test: Growth inhibition of human A498 cells after 48 hrs by sulforhodamine B assay; type: functional; conditions: A498, 48 h
# [35] = system: IGROV-1; test: Growth inhibition of human IGROV1 cells after 48 hrs by sulforhodamine B assay; type: functional; conditions: IGROV-1, 48 h
# [36] = system: SK-OV-3; test: Growth inhibition of human SKOV3 cells after 48 hrs by sulforhodamine B assay; type: functional; conditions: SK-OV-3, 48 h
# [37] = Growth inhibition of human NCI-ADR-RES cells after 48 hrs by sulforhodamine B assay; type: functional
# [38] = system: OVCAR-8; test: Growth inhibition of human OVCAR8 cells after 48 hrs by sulforhodamine B assay; type: functional; conditions: OVCAR-8, 48 h
# [39] = system: OVCAR-5; test: Growth inhibition of human OVCAR5 cells after 48 hrs by sulforhodamine B assay; type: functional; conditions: OVCAR-5, 48 h
# [40] = system: OVCAR-4; test: Growth inhibition of human OVCAR4 cells after 48 hrs by sulforhodamine B assay; type: functional; conditions: OVCAR-4, 48 h
# [41] = system: OVCAR-3; test: Growth inhibition of human OVCAR3 cells after 48 hrs by sulforhodamine B assay; type: functional; conditions: OVCAR-3, 48 h
# [42] = system: SK-MEL-5; test: Growth inhibition of human SK-MEL-5 cells after 48 hrs by sulforhodamine B assay; type: functional; conditions: SK-MEL-5, 48 h
# [43] = system: UACC-257; test: Growth inhibition of human UACC257 cells after 48 hrs by sulforhodamine B assay; type: functional; conditions: UACC-257, 48 h
# [44] = system: Malme-3M; test: Growth inhibition of human MALME-3M cells after 48 hrs by sulforhodamine B assay; type: functional
# [45] = system: LOX IMVI; test: Growth inhibition of human LOXIMVI cells after 48 hrs by sulforhodamine B assay; type: functional
# [46] = system: UACC-62; test: Growth inhibition of human UACC62 cells after 48 hrs by sulforhodamine B assay; type: functional; conditions: UACC-62, 48 h
# [47] = system: SK-MEL-28; test: Growth inhibition of human SK-MEL-28 cells after 48 hrs by sulforhodamine B assay; type: functional; conditions: SK-MEL-28, 48 h
# [48] = system: MDA-MB-435; test: Growth inhibition of human MDA-MB-435 cells after 48 hrs by sulforhodamine B assay; type: functional; conditions: MDA-MB-435, 48 h
# [49] = system: M14; test: Growth inhibition of human M14 cells after 48 hrs by sulforhodamine B assay; type: functional; conditions: M14, 48 h
# [50] = system: SW-620; test: Growth inhibition of human SW620 cells after 48 hrs by sulforhodamine B assay; type: functional; conditions: SW-620, 48 h
# [51] = system: KM12; test: Growth inhibition of human KM12 cells after 48 hrs by sulforhodamine B assay; type: functional; conditions: KM12, 48 h
# [52] = system: HT-29; test: Growth inhibition of human HT-29 cells after 48 hrs by sulforhodamine B assay; type: functional; conditions: HT-29, 48 h
# [53] = system: HCT-116; test: Growth inhibition of human HCT116 cells after 48 hrs by sulforhodamine B assay; type: functional; conditions: HCT-116, 48 h
# [54] = system: HCT-15; test: Growth inhibition of human HCT15 cells after 48 hrs by sulforhodamine B assay; type: functional; conditions: HCT-15, 48 h
# [55] = Growth inhibition of human HCC2998 cells after 48 hrs by sulforhodamine B assay; type: functional; conditions: HCC 2998, 48 h
compound,measurement,setting,value
CCOC(=O)c1cc(C(=O)N2c3ccccc3Sc3ccccc32)n2c(C)cccc12,GI50,[1],1.82 µM
same,GI50,[2],3.13 µM
same,GI50,[3],3.75 µM
same,GI50,[4],3.55 µM
same,GI50,[5],6.14 µM
same,GI50,[6],2.69 µM
same,GI50,[7],5.84 µM
same,GI50,[8],3.81 µM
same,GI50,[9],2.42 µM
same,GI50,[10],2.16 µM
same,GI50,[11],3.72 µM
same,GI50,[12],3.78 µM
same,GI50,[13],3.08 µM
same,GI50,[14],2.39 µM
same,inhibition,[15],31%
same,GI50,[16],4.16 µM
same,GI50,[17],2.93 µM
same,GI50,[18],1.5 µM
same,GI50,[19],6.04 µM
same,GI50,[20],3.03 µM
same,GI50,[21],4.13 µM
same,GI50,[22],1.88 µM
same,GI50,[23],4.89 µM
same,GI50,[24],7.11 µM
same,GI50,[25],2.2 µM
same,GI50,[26],6.73 µM
same,GI50,[27],8.22 µM
same,GI50,[28],4.85 µM
same,GI50,[29],4.17 µM
same,GI50,[30],3.85 µM
same,GI50,[31],2.77 µM
same,GI50,[32],5.53 µM
same,GI50,[33],6.23 µM
same,GI50,[34],1.91 µM
same,GI50,[35],5.78 µM
same,GI50,[36],4.04 µM
same,GI50,[37],2.17 µM
same,GI50,[38],3.76 µM
same,GI50,[39],65.8 µM
same,GI50,[40],7.93 µM
same,GI50,[41],4.24 µM
same,GI50,[42],2.55 µM
same,GI50,[43],3.24 µM
same,GI50,[44],6.13 µM
same,GI50,[45],4.57 µM
same,GI50,[46],2.55 µM
same,GI50,[47],3.5 µM
same,GI50,[48],0.672 µM
same,GI50,[49],2.6 µM
same,GI50,[50],3.14 µM
same,GI50,[51],2.94 µM
same,GI50,[52],2.95 µM
same,GI50,[53],2.89 µM
same,GI50,[54],4.52 µM
same,GI50,[55],6.71 µM
